US20050209343A1, “Percutaneous absorption promoters and compositions for treating athlete's foot” (priority 2002, published 2005)

Tests used:
[1] = Percutaneous absorbability test: amount of antifungal agent in skin after ointment administration; settings: for Amount of antifungal agent in skin relative to antifungal agent alone (100), value in parentheses: same test, 2 hours after administration, *p<0.05, **p<0.01 Student t-test
Procedure: Using clotrimazole, bifonazole, and econazole as antifungal agents, the percutaneous absorption promoting effects of reduced coenzyme Q10 and oxidized coenzyme Q10 to these antifungal agents were evaluated. The antifungal agents were separately dissolved in ethanol, mixed with heat-melted polyethylene glycol 1000 (PEG 1000) so as to have the final concentration of 1%, and prepared into ointments by allowing them to stand at room temperature. Each of heat-melted reduced coenzyme Q10 and oxidized coenzyme Q10 was mixed with the above-mentioned heat-melted PEG 1000 ointment containing each antifungal agent to prepare mixed ointments in which each of the final concentrations of coenzyme Q10s and antifungal agent is 1%.
A percutaneous absorbability test was carried out using fully fed male hairless rats (weight: 350 to 400 g). The hairless rats were mildly anesthetized with ether, and three administration parts of 3 cm square were set on the backs of each rat. To each part, 0.1 g of each ointment, i.e. the ointment containing an antifungal agent alone, the ointment containing an antifungal agent and reduced coenzyme Q10, and the ointment containing an antifungal agent and oxidized coenzyme Q10 was administered. After the lapse of 2 hours from the administration, the rat was euthanized, the administration parts were thoroughly washed, and skin was collected. The clotrimazole amounts in skin were determined by the sequential treatment subjecting the skin to homogenization, acetone extraction, concentration using a solid phase column, and high performance liquid chromatography. Each amount of bifonazole and econazole in the skin was determined by the sequential treatment subjecting the skin to homogenization, methanol extraction, and high performance liquid chromatography.
The values are the average value ±standard deviation (n=3).

[2] = Skin irritation test (Draize method); assay type: in vivo, JW rabbits
Procedure: A skin irritation test was carried out using JW rabbits (17 to 18 weeks old). The backs of three rabbits were dehaired by an electric hair clipper, and four divisions of administration parts of 2.5×2.5 cm square were set on each rabbit back. 0.5 g of each specimen, i.e. oxidized coenzyme Q10 and reduced coenzyme Q10 (containing 2% of oxidized coenzyme Q10) was administered on the administration parts, and the parts were covered with gauzes for specimen's fixation. After the lapse of 4 hours, the specimens were removed. Further after the lapse of 1 hour, 24 hours, 48 hours, and 72 hours, formation of erythema, crusta and dropsy was determined by the method according to Draize J. H. et al. (Exp. Ther., 82, 377-390, 1944). That is, observations were made in view of formations of erythema, crusta and dropsy, they were scored for calculation of the primary irritation indexes, and the skin irritations were evaluated based on said primary irritation indexes. As a result, all scores were 0 (i.e. no erythema, crusta or dropsy) in observation items of oxidized coenzyme Q10 and reduced coenzyme Q10.

[3] = everyday administration, 1200 mg/kg/day for 52 weeks (Williams et al. 1999); cited from earlier work

Clc1ccccc1C(c1ccccc1)(c1ccccc1)n1ccnc1 [Clotrimazole, clotrimazole]
Amount of antifungal agent in skin relative to antifungal agent alone (100), value in parentheses [1]: (100)

COc1c(O)c(C)c(C/C=C(\C)CC/C=C(\C)CC/C=C(\C)CC/C=C(\C)CC/C=C(\C)CC/C=C(\C)CC/C=C(\C)CC/C=C(\C)CC/C=C(\C)CCC=C(C)C)c(O)c1OC [reduced coenzyme Q10]
Scores for erythema, crusta and dropsy (Draize) ([2]; 0.5 g on 2.5×2.5 cm dehaired back skin for 4 hours, observed 1, 24, 48 and 72 hours after removal, three rabbits): 0
Skin irritation (based on primary irritation index) ([2]; 0.5 g on dehaired back skin for 4 hours, observed up to 72 hours after removal): no skin irritation was observed

c1ccc(-c2ccc(C(c3ccccc3)n3ccnc3)cc2)cc1 (stereo not drawn) [Bifonazole, bifonazole]
Amount of antifungal agent in skin relative to antifungal agent alone (100), value in parentheses [1]: (100)

Clc1ccc(COC(Cn2ccnc2)c2ccc(Cl)cc2Cl)cc1 (stereo not drawn) [Econazole, econazole]
Amount of antifungal agent in skin relative to antifungal agent alone (100), value in parentheses [1]: (100)

COC1=C(OC)C(=O)C(C/C=C(\C)CC/C=C(\C)CC/C=C(\C)CC/C=C(\C)CC/C=C(\C)CC/C=C(\C)CC/C=C(\C)CC/C=C(\C)CC/C=C(\C)CCC=C(C)C)=C(C)C1=O [oxidized coenzyme Q10]
Scores for erythema, crusta and dropsy (Draize) ([2]; rabbit, in vivo): 0
Skin irritation (based on primary irritation index) ([2]; rabbit, in vivo): no skin irritation was observed
Increase of antifungal agent amount in skin ([1]; rat, in vivo): 20-40%

COC1=C(OC)C(=O)C(C/C=C(\C)CC/C=C(\C)CC/C=C(\C)CC/C=C(\C)CC/C=C(\C)CC/C=C(\C)CC/C=C(\C)CC/C=C(\C)CC/C=C(\C)CCC=C(C)C)=C(C)C1=O [coenzyme Q10]
Toxic influence in chronic toxicity test [3]: completely no toxic influence had been observed
